Assay results from PubChem BioAssay (NCI).
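Briefly, cells in 96-well plates were exposed to five compound concentrations for 48 h, and endpoints were estimated by linear interpolation. The concentration for 50% growth inhibition is given as GI50. TGI: total growth inhibition.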

Assays:
Test in all cases: inhibition of tumour cell growth, NCI panel, 48 h
[1] = test system: 786-0 renal
[2] = test system: A498 renal
[3] = test system: A549 NSCLC
[4] = test system: ACHN renal
[5] = test system: BT-549 breast
[6] = test system: CAKI-1 renal
[7] = test system: CCRF-CEM leukemia
[8] = test system: COLO 205 colon
[9] = test system: DU-145 prostate
[10] = test system: EKVX NSCLC
[11] = test system: HCC-2998 colon
[12] = test system: HCT-116 colon
[13] = test system: HCT-15 colon
[14] = test system: HL-60(TB) leukemia
[15] = test system: HOP-62 NSCLC
[16] = test system: HOP-92 NSCLC
[17] = test system: HS 578T breast
[18] = test system: HT29 colon
[19] = test system: IGROV1 ovarian
[20] = test system: K-562 leukemia
[21] = test system: KM12 colon
[22] = test system: LOX IMVI melanoma
[23] = test system: M14 melanoma
[24] = test system: MALME-3M melanoma
[25] = test system: MCF7 breast
[26] = test system: MDA-MB-231 breast
[27] = test system: MDA-MB-435
[28] = test system: MOLT-4 leukemia
[29] = test system: NCI-H226 lung
[30] = test system: NCI-H23 lung
[31] = test system: NCI-H460 lung
[32] = test system: NCI/ADR-RES ovarian
[33] = test system: OVCAR-3 ovarian
[34] = test system: OVCAR-4 ovarian
[35] = test system: OVCAR-5 ovarian
[36] = test system: OVCAR-8 ovarian
[37] = test system: PC-3 prostate
[38] = test system: RPMI-8226 leukemia
[39] = test system: RXF 393 renal
[40] = test system: SF-268 CNS
[41] = test system: SF-295 CNS
[42] = test system: SF-539 CNS
[43] = test system: SK-MEL-2 melanoma
[44] = test system: SK-MEL-28 melanoma
[45] = test system: SK-MEL-5 melanoma
[46] = test system: SK-OV-3 ovarian
[47] = test system: SN12C renal
[48] = test system: SNB-19 CNS
[49] = test system: SNB-75 CNS
[50] = test system: SR leukemia
[51] = test system: SW-620 colon
[52] = test system: T-47D breast
[53] = test system: TK-10 renal
[54] = test system: U251 CNS
[55] = test system: UACC-257 melanoma
[56] = test system: UACC-62 melanoma
[57] = test system: UO-31 renal

CC(C)(C)c1ccc(C(=O)Nc2sc3c(c2C(N)=O)CC/C(=N\O)C3)cc1
GI50 [1]: 3.81 µM | TGI [1]: 23 µM | GI50 [2]: 2.09 µM | TGI [2]: 8.85 µM | GI50 [3]: 3.44 µM | TGI [3]: 56.6 µM | GI50 [4]: 1.55 µM | TGI [4]: 9.21 µM | GI50 [5]: 1.06 µM | TGI [5]: 8.1 µM | GI50 [6]: 0.756 µM | TGI [6]: 10.6 µM | GI50 [7]: 0.505 µM | TGI [7]: 9.71 µM | GI50 [8]: 3.39 µM | TGI [8]: 15.7 µM | GI50 [9]: 4.21 µM | TGI [9]: 16.7 µM | GI50 [10]: 3.77 µM | TGI [10]: 19.2 µM | GI50 [11]: 4.79 µM | TGI [11]: 22.3 µM | GI50 [12]: 1.5 µM | TGI [12]: 12.6 µM | GI50 [13]: 1.48 µM | TGI [13]: 14.5 µM | GI50 [14]: 0.675 µM | TGI [14]: 5.64 µM | GI50 [15]: 4.91 µM | TGI [15]: 20.8 µM | GI50 [16]: 2.43 µM | TGI [16]: 6.86 µM | GI50 [17]: 4.66 µM | TGI [17]: 58 µM | GI50 [18]: 2.68 µM | TGI [18]: 19.9 µM | GI50 [19]: 3.55 µM | TGI [19]: 32 µM | GI50 [20]: 0.597 µM | TGI [20]: 5.82 µM | GI50 [21]: 2.85 µM | TGI [21]: 13.5 µM | GI50 [22]: 1.61 µM | TGI [22]: 4.35 µM | GI50 [23]: 2.83 µM | TGI [23]: 14.2 µM | GI50 [24]: 2.36 µM | TGI [24]: 6.53 µM | GI50 [25]: 2.68 µM | TGI [25]: 43.1 µM | GI50 [26]: 3.04 µM | TGI [26]: 9.11 µM | GI50 [27]: 3.01 µM | TGI [27]: 10.2 µM | GI50 [28]: 2.09 µM | TGI [28]: 10.6 µM | GI50 [29]: 2.36 µM | TGI [29]: 9.9 µM | GI50 [30]: 2.51 µM | TGI [30]: 13.4 µM | GI50 [31]: 3.06 µM | TGI [31]: 10.1 µM | GI50 [32]: 2.87 µM | TGI [32]: 18.6 µM | GI50 [33]: 3.18 µM | TGI [33]: 13.6 µM | GI50 [34]: 1.12 µM | TGI [34]: 14.2 µM | GI50 [35]: 3.43 µM | TGI [35]: 14.3 µM | GI50 [36]: 3.88 µM | TGI [36]: 20.2 µM | GI50 [37]: 1.31 µM | TGI [37]: 18.6 µM | GI50 [38]: 1.04 µM | TGI [38]: 4.92 µM | GI50 [39]: 0.544 µM | TGI [39]: 3.11 µM | GI50 [40]: 5.38 µM | TGI [40]: 24.7 µM | GI50 [41]: 3.96 µM | TGI [41]: 14.8 µM | GI50 [42]: 2.39 µM | TGI [42]: 6.39 µM | GI50 [43]: 2.69 µM | TGI [43]: 7.01 µM | GI50 [44]: 3.47 µM | TGI [44]: 12.4 µM | GI50 [45]: 2 µM | TGI [45]: 4.21 µM | GI50 [46]: 3.53 µM | TGI [46]: 19.2 µM | GI50 [47]: 3.2 µM | TGI [47]: 12.2 µM | GI50 [48]: 4.18 µM | TGI [48]: 18.4 µM | GI50 [49]: 3.65 µM | TGI [49]: 14.9 µM | GI50 [50]: 1.36 µM | TGI [50]: 6.36 µM | GI50 [51]: 1.93 µM | TGI [51]: 17.4 µM | GI50 [52]: 0.739 µM | TGI [52]: 8.06 µM | GI50 [53]: 5.81 µM | TGI [53]: 53.9 µM | GI50 [54]: 3.66 µM | TGI [54]: 28.2 µM | GI50 [55]: 3.27 µM | TGI [55]: 11.7 µM | GI50 [56]: 1.95 µM | TGI [56]: 8.99 µM

NC(N)=Nc1ccc(Oc2ccc(Nc3ccc(Cl)c(C(F)(F)F)c3)cc2)cc1
GI50 [1]: 1.74 µM | TGI [1]: 3.29 µM | GI50 [2]: 1.28 µM | TGI [2]: 2.55 µM | GI50 [4]: 1.8 µM | TGI [4]: 3.24 µM | GI50 [7]: 2.21 µM | TGI [7]: 6.91 µM | GI50 [8]: 1.73 µM | TGI [8]: 3.48 µM | GI50 [9]: 1.74 µM | TGI [9]: 3.16 µM | GI50 [10]: 1.76 µM | TGI [10]: 3.56 µM | GI50 [13]: 1.94 µM | TGI [13]: 4.23 µM | GI50 [16]: 1.38 µM | TGI [16]: 2.8 µM | GI50 [17]: 1.9 µM | TGI [17]: 4.64 µM | GI50 [18]: 1.6 µM | TGI [18]: 3.09 µM | GI50 [21]: 1.65 µM | TGI [21]: 3.11 µM | GI50 [23]: 1.65 µM | TGI [23]: 3.22 µM | GI50 [24]: 1.79 µM | TGI [24]: 3.99 µM | GI50 [27]: 1.59 µM | TGI [27]: 3.02 µM | GI50 [28]: 1.83 µM | TGI [28]: 4.62 µM | GI50 [30]: 1.64 µM | TGI [30]: 3.15 µM | GI50 [31]: 1.78 µM | TGI [31]: 3.32 µM | GI50 [32]: 10.4 µM | TGI [32]: 27.7 µM | GI50 [34]: 1.73 µM | TGI [34]: 3.27 µM | GI50 [35]: 1.71 µM | TGI [35]: 3.15 µM | GI50 [37]: 1.51 µM | TGI [37]: 3.01 µM | GI50 [38]: 2.46 µM | TGI [38]: 6.97 µM | GI50 [39]: 1.58 µM | TGI [39]: 3.04 µM | GI50 [40]: 1.62 µM | TGI [40]: 3.39 µM | GI50 [42]: 1.69 µM | TGI [42]: 3.19 µM | GI50 [43]: 1.76 µM | TGI [43]: 3.2 µM | GI50 [44]: 1.64 µM | TGI [44]: 3.05 µM | GI50 [46]: 2.18 µM | TGI [46]: 5.07 µM | GI50 [47]: 1.66 µM | TGI [47]: 3.19 µM | GI50 [49]: 1.26 µM | TGI [49]: 2.61 µM | GI50 [51]: 1.7 µM | TGI [51]: 3.25 µM | GI50 [53]: 1.82 µM | TGI [53]: 3.42 µM | GI50 [55]: 1.64 µM | TGI [55]: 3.26 µM | GI50 [56]: 1.7 µM | TGI [56]: 3.27 µM | GI50 [57]: 1.84 µM | TGI [57]: 4.51 µM
